In patent publication US8771682B2, “Methods and compositions for reducing interleukin-4 or interleukin-13 signaling” (Technische Universtität Dresden, priority 2011, dated 2014):
“Also recorded” adds a separate entry of the source.

Assays:
Format in all cases: cell-based, human
[1] = test system: type II IL-4 signaling (IL-4/IL-13, Stat6 phosphorylation); test: Stat6 phosphorylation by quantitative immunoblotting in Stat6-transfected HEK293T cells stimulated with IL-4 or IL-13 (type II signaling); settings: IL-4 3 ng/ml or IL-13 10 ng/ml, Dynasore 320 μmol/l, EHT-1864 50 μmol/l, IPA-3 10 μmol/l, FIG. 9
Excerpt: It was verified by RT-PCR that HEK293T (human epithelial cell line—ATCC number CRL-11268) cells expressed the endogenous type II IL-4 pathway components IL4-Ra, IL-13Ra1, Jak1, while Stat6 and the type I specific components IL-2Rg, and Jak3 were absent (FIG. 4 and FIG. 5). In HEK cells ectopically expressing human Stat6 under the cytomegalovirus promoter (pcDNA3.1-GS-Stat6, Gene Storm, Invitrogen) and stimulated with either IL-4 or IL-13, phosphorylated Stat6 became detectable by immunoblotting (FIG. 6). Co-transfected RNAi (Sigma Aldrich, #EHU-029151) mediated knockdown of the endogenous IL-13Ra1 subunit verified that this signaling activity was mediated by the type II receptor pathway (FIG. 7). Ectopically Stat6 is functional.
To test whether IL-4 signaling depends on compounds inhibiting Rac/Pak dependent endocytosis, HEK293T cells were transfected with a plasmid encoding human Stat6. Following transfection, cells were grown overnight, treated with inhibitors and/or ligands, lysed, proteins separated electrophoretically under denaturing conditions, and phosphorylation of Stat6 detected by quantitative immunoblotting (Antibodies from Santa Cruz, anti-STAT6 (M-20) #sc-981 and anti-phospho-STAT6 (py641.18, #sc-136019; FIG. 9).
If not indicated otherwise, human recombinant IL-4 (Invitrogen, #PHC0045) was used at 3 ng/ml, and human recombinant IL-13 (Cell Signaling, #8905) was used at 10 ng/ml.
If not indicated otherwise, the dynamin inhibitor Dynasore (Sigma Aldrich, #D7693) was used at 320 μmol/l, the Rac1 inhibitor EHT-1864 (Sigma Aldrich, 41E-1657) at 50 μmol/l, and the PAK inhibitor IPA-3 (Sigma Aldrich, #I-2285) at 10 μmol/l.

[2] = test system: endogenous type I signaling (IL-4R, Stat6 phosphorylation) in Jurkat T lymphocytic leukemia cell line; test: pStat6 levels, endogenous type I IL-4 signaling in Jurkat cells; settings: 10 min pre-incubation with inhibitor plus 30 min ligand and inhibitor, chlorpromazine 2.8 μmol/l
Protocol: In a second series of experiments the inventors assayed the type I IL-4R. The pStat6 levels were determined under the following conditions: • without ligand stimulation • incubation with IL-4 ligand for 30 min • 10 min pre-incubation with inhibitor plus 30 min incubation with ligand and inhibitor • 40 min pre-incubation with inhibitor followed by removal of the inhibitor and 30 min incubation with ligand (washout).
To assay endogenous type I signaling was analyzed in the Jurkat T lymphocytic leukemia cell line (ATCC TIB 152) showing a specific sensitivity to Rac/Pak dependent endocytosis.

[3] = test system: transferrin uptake in HEK cells expressing endogenous transferrin receptor; test: Uptake of fluorescent transferrin (Alexa568-transferrin) by confocal fluorescence microscopy; settings: 25 μg/ml Alexa568-transferrin, compounds at working concentration (Dynasore 320 μmol/l), FIG. 14
Protocol: The inventors verified that the used compounds at the working concentration indeed blocked endocytosis by monitoring the uptake of 25 μg/ml fluorescent transferrin (Alexa568-transferrin, Invitrogen) with confocal fluorescence microscopy (FIG. 14). The experiment was performed with (untransformed) HEK-cells expressing endogenous transferrin receptor. As expected, dynamin dependent endocytosis could be blocked with Dynasore. […] As expected, inhibiting Rac1 and Pak 1/2 dependent actin polymerization by EHT-1864 and IPA-3 had no effect on transferrin uptake (FIG. 14).

[4] = test system: loading of the signaling endosome with IL4-A647 in HEK293T transfected with IL-4Ra, IL-2Rg-eGFP and JAK3; test: Translocation of labeled IL-4 (IL4-A647) into signaling endosomes, co-localization with IL-2Rg-eGFP
Protocol: The inventors created a fluorescently labeled IL-4 ligand (Alexa647—succinimidylester, Invitrogen)—further referred to as IL4-A647.
HEK293T were transfected with IL-4Ra, IL-2Rg-eGFP, and JAK3 as described above and cultured under standard culture conditions. The cells were incubated at 4° C. with the inhibitor (optional) and stained with 50 nmol/I IL4-A647 and washed with medium (DMEM without phenole red). The temperature release from 0° C. to 20° C. was defined as a reference point for the onset of endocytosis. Thenceforth, co-localization of eGFP with A647 was measured.
Applying the fluorescent IL-4-A647 under conditions in which endocytosis is suppressed (4° C.) allows to observe the kinetics of the translocation into the signaling endosomes. The endocytosis starts with a temperature release. FIG. 15 illustrates that in an initial state (timepoint 0 min, IL4-A647 channel) the plasma membrane of the IL-4Ra chain expressing cells is homogeneously stained. However, after several minutes, the A647 fluorescence a punctuated pattern appears in the IL4-A647 channel showing a high degree of colocalization to the GFP channel (FIG. 16). Association of the stained endosomes with the actin cortex and the plasma membrane is apparent in central confocal cross-sections through a central part of the cell (FIG. 17). […] Such a readout could therefore be used to detect IL-4 translocation inhibitors.

Row | SMILES | Stat6 phosphorylation level [1] | IL-4 signaling (pStat6 level) [2] | transferrin uptake [3] | transport of the Alexa647-labeled ligand ([4]; 50 μmol/l EHT-1864, bottom membrane, 21 min after temperature release, FIG. 18) | uptake of the labeled ligand ([4]; 50 μmol/l EHT-1864, central cross-section, 22 min after temperature release, FIG. 19) | loading of the signaling endosome with IL4-A647 ([4]; pre-incubation with 50 μmol/l EHT-1864, for up to 20 minutes after temperature release, FIG. 18) | IL-4 signaling (pStat6 level) ([2]; listed as Chlorpromazine) | transferrin uptake ([3]; listed as Chlorpromazine)
1 | O=c1cc(CN2CCOCC2)occ1OCCCCCSc1ccnc2cc(C(F)(F)F)ccc12 (racemic) [EHT-1864, 5-(5-(7-(Trifluoromethyl)quinolin-4-ylthio)pentyloxy)-2-(morpholinomethyl)-4H-pyran-4-one] | reduced the Stat6 phosphorylation level | significantly reduced | no effect | reduced | reduced uptake | reduced significantly | – | –
2 | O=C(N/N=C/c1ccc(O)c(O)c1)c1cc2ccccc2cc1O [Dynasore] | reduced the Stat6 phosphorylation level; also recorded: prevented Stat6 phosphorylation | significantly reduced | blocked transferrin endocytosis; also recorded: inhibit transferrin uptake | – | – | – | – | –
3 | Oc1ccc2ccccc2c1SSc1c(O)ccc2ccccc12 [IPA-3, 1,1′-Dithiodi-2-naphthtol] | reduced the Stat6 phosphorylation level | significantly reduced | no effect | – | – | – | – | –
4 | CN(C)CCCN1c2ccccc2Sc2ccc(Cl)cc21 [chlorpromazine] | – | no effect; also recorded: not IL-4 signaling | blocked transferrin uptake | – | – | – | no inhibitory effect | inhibit transferrin uptake
